Among the test systems are 786-0 renal; CAKI-1 renal; HCC-2998 colon; HOP-92 NSCLC; LOX IMVI melanoma; MALME-3M melanoma; MCF7 breast; MDA-MB-231 breast; SF-539 CNS; UACC-62 melanoma.
Holding throughout (assay): NCI-60 cell line screen, 48 h

SMILES strings stand for the structures. Where “and” joins values, the source holds several entries; their conditions need not be identical. Identical values can stand only once.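 Test compounds were applied to cells in 96-well plates for 48 hours at 5 doses. Here, GI50 denotes the concentration required for 50% inhibition of growth. TGI: concentration producing complete growth inhibition.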 Where a SMILES comes first, the peptide text is derived from it. [ ]: non-standard residue; d: D form. Orn = NCCC[CH](N)C(=O)O Where only a bound is given, the exact number is not on record here.

For the compound `O=C(Nc1ncc(Cc2ccc(Cl)cc2)s1)c1ccc2c(c1)OCCO2`, the GI50 was 0.0728 µM in the assay on 786-0 renal; 0.0547 µM with CAKI-1 renal; 0.223 µM in the assay with HCC-2998 colon; 2.12 µM in the assay with HOP-92 NSCLC; 0.0742 µM in the assay on LOX IMVI melanoma; 0.059 µM in the assay with MALME-3M melanoma. In addition, the GI50 in the assay with MCF7 breast was 0.0661 µM; with MDA-MB-231 breast it was 0.176 µM; in the assay with SF-539 CNS it was 0.0469 µM; with UACC-62 melanoma, 0.0543 µM. Further, the TGI in the assay with 786-0 renal is above 100 µM; with CAKI-1 renal it was 39 µM; in the assay on HCC-2998 colon, 20.3 µM; in the assay on HOP-92 NSCLC, above 100 µM; in the assay with LOX IMVI melanoma, above 100 µM; in the assay with MALME-3M melanoma it was above 86.5 µM. Further, the TGI with MCF7 breast is above 100 µM; with MDA-MB-231 breast, 3.15 µM; with SF-539 CNS, 0.571 µM; with UACC-62 melanoma it was above 100 µM.
Consider `OCCCNC(=S)Nc1ccc(-c2nc3ccccc3s2)cc1`, for which the GI50 with 786-0 renal was 22.8 µM; with CAKI-1 renal it was 14.3 µM; in the assay with HCC-2998 colon it was 13.7 µM; in the assay on HOP-92 NSCLC, 19.7 µM; in the assay on LOX IMVI melanoma it was 17.9 µM; in the assay on MALME-3M melanoma it was 19.3 µM. Besides, the GI50 in the assay on MCF7 breast is 32.5 µM; in the assay on MDA-MB-231 breast, 16.5 µM; with SF-539 CNS, 29.8 µM; in the assay on UACC-62 melanoma, 18.6 µM. The TGI with 786-0 renal stood at 55.2 µM; in the assay on CAKI-1 renal, 40.6 µM; in the assay on HCC-2998 colon, 26.8 µM; with HOP-92 NSCLC, 82.9 µM; with LOX IMVI melanoma, 38.2 µM; with MALME-3M melanoma, 52.7 µM. The TGI in the assay with MCF7 breast was above 100 µM; with MDA-MB-231 breast, 43.5 µM; in the assay on SF-539 CNS, 95.4 µM; in the assay on UACC-62 melanoma, 41 µM.
Regarding `COc1cc([C@@H]2c3cc4c(cc3[C@H](O)[C@H]3COC(=O)[C@@H]23)OCO4)cc(OC)c1OC`, the GI50 in the assay on 786-0 renal is 0.504 µM and 0.332 µM; in the assay on CAKI-1 renal, 0.448 µM and 0.258 µM; in the assay with HCC-2998 colon, 0.948 µM and 0.159 µM; in the assay with LOX IMVI melanoma it was 0.46 µM and 0.623 µM; with MALME-3M melanoma, 1.11 µM and 0.169 µM; with MCF7 breast, 0.321 µM and 0.0612 µM. The GI50 is 0.776 µM and 0.454 µM in the assay on MDA-MB-231 breast; 0.256 µM and 0.094 µM in the assay on SF-539 CNS; 0.407 µM and 0.153 µM in the assay on UACC-62 melanoma. Besides, the TGI was above 100 µM in the assay with 786-0 renal; above 35.8 µM in the assay on CAKI-1 renal; > 6.16 µM and 0.647 µM in the assay with HCC-2998 colon; above 88.6 µM in the assay on HOP-92 NSCLC; above 100 µM in the assay on LOX IMVI melanoma; above 100 µM in the assay with MALME-3M melanoma. The TGI was above 100 µM with MCF7 breast; above 100 µM in the assay with MDA-MB-231 breast; 0.876 µM and 0.4 µM in the assay with SF-539 CNS; above 100 µM in the assay with UACC-62 melanoma.
Consider `CCNCCNc1cc(C2CCCC2)c(C#N)c2nc3ccccc3n12`, for which the GI50 in the assay on 786-0 renal was 2.69 µM; with CAKI-1 renal, 3.59 µM; with HCC-2998 colon it was 3.48 µM; in the assay with HOP-92 NSCLC, 2.08 µM; in the assay on LOX IMVI melanoma, 1.76 µM; with MALME-3M melanoma, 1.73 µM. Moreover, the GI50 was 2.58 µM in the assay with MCF7 breast, 2.37 µM in the assay on MDA-MB-231 breast, 1.67 µM in the assay on SF-539 CNS and 1.92 µM in the assay on UACC-62 melanoma. Also, the TGI was 9.79 µM in the assay on 786-0 renal; 14.5 µM with CAKI-1 renal; 15.3 µM with HCC-2998 colon; 4.4 µM with HOP-92 NSCLC; 3.3 µM with LOX IMVI melanoma; 3.45 µM in the assay with MALME-3M melanoma. Further, the TGI was determined as 13.7 µM with MCF7 breast, 5.27 µM in the assay with MDA-MB-231 breast, 3.25 µM in the assay on SF-539 CNS and 3.76 µM with UACC-62 melanoma.
For the compound `O=C(Nc1cccc2ccccc12)c1cc2ccccc2cc1O`, the GI50 in the assay on 786-0 renal was 3.43 µM; with CAKI-1 renal, 1.75 µM; in the assay on HCC-2998 colon it was 3.5 µM; with HOP-92 NSCLC it was 0.969 µM; with LOX IMVI melanoma, 2.72 µM; in the assay on MALME-3M melanoma, 0.562 µM. The GI50 in the assay on MCF7 breast is 1.7 µM; in the assay on MDA-MB-231 breast, 1.77 µM; in the assay on SF-539 CNS, 3.28 µM; in the assay on UACC-62 melanoma it was 1.49 µM. Also, the TGI was determined as 17.2 µM with 786-0 renal; 4.52 µM in the assay on CAKI-1 renal; 13.3 µM in the assay on HCC-2998 colon; 4.25 µM with HOP-92 NSCLC; 12.2 µM in the assay with LOX IMVI melanoma; 3.9 µM with MALME-3M melanoma. Moreover, the TGI with MCF7 breast worked out at 7.71 µM; in the assay on MDA-MB-231 breast, 4.46 µM; with SF-539 CNS it was 12.8 µM; in the assay on UACC-62 melanoma, 10.7 µM.
Regarding `COc1ccc(-c2oncc2-c2cc(OC)c3c(c2)OCO3)cc1`, the GI50 in the assay on 786-0 renal was 7.67 µM; in the assay with CAKI-1 renal it was 2.16 µM; in the assay on HCC-2998 colon it was 6.36 µM; in the assay on HOP-92 NSCLC it was 2.08 µM; with LOX IMVI melanoma, 4.01 µM; with MALME-3M melanoma, above 100 µM. The GI50 is 1.59 µM in the assay on MCF7 breast, 2.8 µM in the assay on MDA-MB-231 breast, 2 µM in the assay on SF-539 CNS and 2.85 µM in the assay on UACC-62 melanoma. For the same compound, the TGI with 786-0 renal was above 100 µM; in the assay on CAKI-1 renal it was 31.2 µM; in the assay with HCC-2998 colon, above 100 µM; with HOP-92 NSCLC, 28.6 µM; in the assay on LOX IMVI melanoma, above 60.1 µM; with MALME-3M melanoma, above 100 µM. Also, the TGI with MCF7 breast was above 100 µM; in the assay with MDA-MB-231 breast, 54 µM; with SF-539 CNS, 5.92 µM; in the assay with UACC-62 melanoma, 57.7 µM.
As to `CC(C)CC1NC(=O)C(CCCN)NC(=O)C(C(C)C)NC(=O)C2CCCN2C(=O)C(Cc2ccccc2)NC(=O)C(CC(C)C)NC(=O)C(CCCN)NC(=O)C(C(C)C)NC(=O)C2CCCN2C(=O)C(Cc2ccccc2)NC1=O` (centres undefined) (cyclo(FPV[Orn]LFPV[Orn]L); configuration not given here), the GI50 in the assay on 786-0 renal is 0.0451 µM and 0.0506 µM; with CAKI-1 renal it was 0.564 µM and 1.02 µM; in the assay with HCC-2998 colon it was below 0.00325 µM; in the assay with HOP-92 NSCLC, 0.00661 µM and 0.0126 µM; in the assay with LOX IMVI melanoma, 0.0101 µM and 0.0221 µM; in the assay with MALME-3M melanoma it was 0.0108 µM and 0.0286 µM. The GI50 in the assay on MCF7 breast is 0.0109 µM; with MDA-MB-231 breast, 0.0209 µM and 0.0242 µM; in the assay on SF-539 CNS, 0.0146 µM and 0.0477 µM; in the assay on UACC-62 melanoma, < 0.0123 µM and 0.0315 µM. Further, the TGI in the assay with 786-0 renal was 0.46 µM and 1.26 µM; in the assay on CAKI-1 renal, 2.14 µM and 7.23 µM; with HCC-2998 colon it was 1.29 µM and 1.74 µM; in the assay with HOP-92 NSCLC, 0.0204 µM and 0.0545 µM; in the assay with LOX IMVI melanoma, 0.0474 µM and 0.054 µM; in the assay on MALME-3M melanoma, 0.12 µM and 0.0929 µM. The TGI with MCF7 breast is 0.373 µM and 0.102 µM; with MDA-MB-231 breast it was 0.146 µM and 0.0877 µM; in the assay with SF-539 CNS it was 0.421 µM and 1.05 µM; in the assay on UACC-62 melanoma it was 0.443 µM and 1.26 µM.

(Values after PubChem BioAssay (NCI).)
